From article PMC4379526 (2015)

Test system: OTA aptabeacon (DNA, aptamer) CGCGCTGGATCGGGTGTGGGTGGCGTAAAGGGAGCATCGGACACAGCGCG
Assay: molecular beacon fluorescence, real-time PCR cycler
Conditions: 120 mM NaCl, 5 mM KCl, 20 mM CaCl2, 10 mM Tris pH 8.5, 30 °C

Row | Kd (1 µM aptabeacon, calculated from Kd = [A][L]/[AL]) [nM] | SMILES | binding (2 µM toxin, peak area 67–88% lower than OTA)
1 | 800 | C[C@@H]1Cc2c(Cl)cc(C(=O)N[C@@H](Cc3ccccc3)C(=O)O)c(O)c2C(=O)O1 | –
2 | – | C[C@@H]1Cc2ccc(C(=O)N[C@@H](Cc3ccccc3)C(=O)O)c(O)c2C(=O)O1 | weak
